This is an account of results in ChEMBL document CHEMBL5131461, “Discovery of 4-(phenoxymethyl)-1H-1,2,3-triazole derivatives as novel xanthine oxidase inhibitors” (Bioorg Med Chem Lett, 2022).

pIC50: −log10 of the molar value. Active and inactive are the calls of the source. The rule behind the calls is not given here. Bounds are passed on as bounds.

The test system of the first series is Rattus norvegicus. The series can be described thus: In vivo Hypouricemic activity against potassium oxonate-induced hyperuricemia rat model assessed as reduction in serum uric acid production at 20 mg/kg, po measured after 2 hrs. The series is classed as functional, organism-based.
Conditions: not given
Take `COc1cccc(Cn2cc(COc3ccc(F)cc3C=O)nn2)c1`: the result was Active.

In another series the test system is Rattus norvegicus. The series can be described thus: In vivo Hypouricemic activity against potassium oxonate-induced hyperuricemia rat model assessed as reduction in AUC of serum uric acid level at 20 mg/kg, po measured after 0.5 to 8 hrs. The format is functional, organism-based. The settings on record: time 0.5-8 hrs.
For `COc1cccc(Cn2cc(COc3ccc(F)cc3C=O)nn2)c1`, the result was Active.

The test system of a further series is Rattus norvegicus. Description: In vivo Hypouricemic activity against potassium oxonate-induced hyperuricemia rat model assessed as reduction in serum uric acid production at 8 mg/kg, po measured after 2 hrs.
Conditions: not given
The series is classed as functional, organism-based.
For `Oc1ncnc2[nH]ncc12`, the outcome was Active.

The target in a further series is T1, Xanthine dehydrogenase/oxidase (Bos taurus, UniProt P80457). Description: Potency index, ratio of allopurinol IC50 to test compound IC50 for bovine XO using xanthine as substrate by spectrophotometry. The settings on record: cattle.
T1 sequence (P80457 whole entry): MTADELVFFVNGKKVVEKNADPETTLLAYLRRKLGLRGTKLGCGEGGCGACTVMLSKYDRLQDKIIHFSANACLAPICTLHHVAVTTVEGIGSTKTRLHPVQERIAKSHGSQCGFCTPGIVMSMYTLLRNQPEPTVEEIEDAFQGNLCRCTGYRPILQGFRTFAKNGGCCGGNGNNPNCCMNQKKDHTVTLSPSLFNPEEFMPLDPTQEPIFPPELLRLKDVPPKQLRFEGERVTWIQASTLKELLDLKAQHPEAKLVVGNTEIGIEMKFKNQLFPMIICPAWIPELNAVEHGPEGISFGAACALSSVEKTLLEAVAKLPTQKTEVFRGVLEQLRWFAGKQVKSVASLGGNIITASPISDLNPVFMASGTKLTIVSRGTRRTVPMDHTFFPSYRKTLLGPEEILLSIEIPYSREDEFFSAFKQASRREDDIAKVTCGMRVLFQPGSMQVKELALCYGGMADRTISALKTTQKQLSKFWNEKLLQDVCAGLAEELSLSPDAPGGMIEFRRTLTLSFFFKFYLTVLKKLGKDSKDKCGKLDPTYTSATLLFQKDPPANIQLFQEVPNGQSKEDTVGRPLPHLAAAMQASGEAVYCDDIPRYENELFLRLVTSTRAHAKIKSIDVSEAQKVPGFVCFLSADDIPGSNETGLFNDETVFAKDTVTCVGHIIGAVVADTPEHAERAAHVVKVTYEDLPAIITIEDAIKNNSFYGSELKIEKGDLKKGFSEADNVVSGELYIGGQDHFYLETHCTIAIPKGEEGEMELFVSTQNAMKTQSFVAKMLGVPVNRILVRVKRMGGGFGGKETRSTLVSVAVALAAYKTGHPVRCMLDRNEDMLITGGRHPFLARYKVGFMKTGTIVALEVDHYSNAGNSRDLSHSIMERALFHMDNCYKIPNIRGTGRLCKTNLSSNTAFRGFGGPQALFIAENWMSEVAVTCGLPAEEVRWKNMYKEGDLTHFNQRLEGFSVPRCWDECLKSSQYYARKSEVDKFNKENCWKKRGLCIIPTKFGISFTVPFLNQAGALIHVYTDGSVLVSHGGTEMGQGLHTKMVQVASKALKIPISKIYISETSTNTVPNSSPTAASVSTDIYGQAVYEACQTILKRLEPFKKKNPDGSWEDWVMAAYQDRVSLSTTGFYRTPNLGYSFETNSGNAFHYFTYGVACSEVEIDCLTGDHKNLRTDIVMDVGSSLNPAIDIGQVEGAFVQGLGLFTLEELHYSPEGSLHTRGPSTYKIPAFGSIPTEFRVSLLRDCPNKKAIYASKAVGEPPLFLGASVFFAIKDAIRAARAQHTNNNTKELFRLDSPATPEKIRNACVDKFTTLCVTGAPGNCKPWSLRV
Consider `COc1cccc(Cn2cc(COc3ccc(F)cc3C=O)nn2)c1`, for which the “Ratio IC50” value was determined as 14.

The target of another series is T1, Xanthine dehydrogenase/oxidase. The series can be described thus: Inhibition of bovine XO assessed as inhibition of uric acid formation using xanthine as substrate at 25 uM preincubated with enzyme for 10 mins followed by substrate addition and measured for 2 mins by spectrophotometry. The settings on record: cattle, time 12 min.
As for `CC(C)n1cc(COc2ccccc2C=O)nn1`, the inhibition at 25 µM is < 50%. Still for that read-out and setting: next, `COc1ccccc1Cn1cc(COc2ccccc2[N+](=O)[O-])nn1`: < 50%; `COc1ccccc1Cn1cc(COc2ccccc2C#N)nn1`: < 50%.

As to `O=Cc1ccccc1OCc1cn(Cc2ccccc2)nn1`, the inhibition at 25 µM was < 50%. With `CCCn1cc(COc2ccccc2C=O)nn1`, the inhibition at 25 µM was < 50%. Still for that read-out and setting: under `COc1cccc(Cn2cc(COc3cc(F)ccc3C=O)nn2)c1` stands < 50%; under `COc1cccc(Cn2cc(COc3ccccc3[N+](=O)[O-])nn2)c1`, < 50%. Still for that read-out and setting: next, `COc1cccc(Cn2cc(COc3ccccc3C#N)nn2)c1`: < 50%. Same read-out and setting: under `CCn1cc(COc2ccccc2C=O)nn1` stands < 50%; under `CC(C)CCn1cc(COc2cc(F)ccc2C=O)nn1`, < 50%.

A further series has the same target. Description: Inhibition of bovine XO assessed as inhibition of uric acid formation using xanthine as substrate preincubated with enzyme for 10 mins followed by substrate addition and measured for 2 mins by spectrophotometry.
Conditions: not given
`CC(C)n1cc(COc2ccc(F)cc2C=O)nn1`: the pIC50 was 5.59.

For the compound `COc1ccccc1Cn1cc(COc2ccc(F)cc2C=O)nn1`, the pIC50 was 6.03. For `CCCn1cc(COc2ccc(F)cc2C=O)nn1`, the pIC50 is 5.28. Consider `N#Cc1cccc(Cn2cc(COc3ccc(F)cc3C=O)nn2)c1`, for which the pIC50 was 5.60. On the same count and under the same terms, under `COc1ccccc1Cn1cc(COc2cc(F)ccc2C=O)nn1` stands 5.68; under `CCCCCn1cc(COc2ccc(F)cc2C=O)nn1`, 5.52; under `CCCCn1cc(COc2cc(F)ccc2C=O)nn1`, 5.44. Same read-out and setting: next, `COc1ccccc1Cn1cc(COc2ccccc2C=O)nn1`: 5.84; `Cc1ccccc1Cn1cc(COc2ccccc2C=O)nn1`: 5.79. For `Cc1cccc(Cn2cc(COc3ccccc3C=O)nn2)c1`, the pIC50 is 5.95. Same read-out and setting: under `N#Cc1ccccc1Cn1cc(COc2ccc(F)cc2C=O)nn1` stands 5.38; under `Cc1cccc(Cn2cc(COc3ccc(F)cc3C=O)nn2)c1`, 5.93. On the same count and under the same terms, under `O=Cc1ccccc1OCc1cn(Cc2ccccc2)nn1` stands < 4.60; under `COc1cccc(Cn2cc(COc3ccccc3C=O)nn2)c1`, 5.99. The same measure, in the same setting: under `CC(C)CCn1cc(COc2ccccc2C=O)nn1` stands 4.80; under `CCCCCn1cc(COc2ccccc2C=O)nn1`, 4.74; under `CCCCn1cc(COc2ccc(F)cc2C=O)nn1`, 5.60. In the case of `COc1cccc(Cn2cc(COc3ccc(F)cc3C=O)nn2)c1`, the pIC50 was 6.15. The same measure, in the same setting: next, `CCCCn1cc(COc2ccccc2C=O)nn1`: 4.87.

Regarding `CCC(C)n1cc(COc2ccccc2C=O)nn1` (configuration not stated), the pIC50 was 4.66. Take `CC(C)Cn1cc(COc2ccccc2C=O)nn1`: the pIC50 is 4.67. Same read-out and setting: under `CC(C)CCn1cc(COc2ccc(F)cc2C=O)nn1` stands 5.67; under `N#Cc1cccc(Cn2cc(COc3ccccc3C=O)nn2)c1`, 5.77.

`CC(C)Cn1cc(COc2ccc(F)cc2C=O)nn1`: the pIC50 was 4.84. `CCC(C)n1cc(COc2ccc(F)cc2C=O)nn1` (configuration not stated): the pIC50 is 5.03. Same read-out and setting: next, `CCn1cc(COc2ccc(F)cc2C=O)nn1`: 5.46; `Cc1ccccc1Cn1cc(COc2ccc(F)cc2C=O)nn1`: 5.40; `N#Cc1ccccc1Cn1cc(COc2ccccc2C=O)nn1`: 5.65.
